Reference: US20250290117A1, “MOLECULAR PHENOTYPIC ANTIMICROBIAL SUSCEPTIBILITY TESTING” (priority 2024, published 2025)

Columns and labels:
E. coli = test: Molecular phenotypic antimicrobial susceptibility test with direct PCR (no extraction DNA purification step); type: cell-based, Escherichia coli; settings: E. coli isolate JJ1887, direct PCR
[1] = tested on: pathogens of clinical samples; test: Molecular phenotypic antimicrobial susceptibility test of clinical samples, direct PCR without a separate DNA purification step (Table 6); type: cell-based
Procedure, shortened: (§1)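 Patient specimens in boric acid were grown in culture medium, adjusted to 0.5 McFarland by optical density, then incubated 12-16 hours with antimicrobials in Mueller Hinton Broth at breakpoint concentrations. Growth was read by semi-quantitative PCR, alongside a no-antimicrobial well for pathogen load.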

Escherichia coli = test: Molecular phenotypic antimicrobial susceptibility test (extraction or DNA purification prior to PCR); type: cell-based
Procedure, shortened: as §1

Substance: Trimethoprim/Sulfamethoxazole [TMP/SMX]
- Ct at Sensitive Breakpoint (E. coli; Ct at control (average) 12.832): 13.414
- Molecular Antimicrobial Susceptibility Result (E. coli; at sensitive breakpoint): Resistant
- Molecular Antibiotic Susceptibility Result ([1]; E. coli, clinical sample of r10-r24): Sensitive (Antimicrobial wells with pathogen load detected below the control wells (typically >2 cycle thresholds later) may be reported as Sensitive)
- Ct ([1]; E. coli, clinical sample of r10-r24, Ct control avg 12.97): 24.066
- Molecular Antibiotic Susceptibility Result ([1]; E. coli, clinical sample of r158-r172): Sensitive (Antimicrobial wells with pathogen load detected below the control wells (typically >2 cycle thresholds later) may be reported as Sensitive)
- Ct ([1]; E. coli, clinical sample of r158-r172, Ct control avg 12.894): 28.739
- Molecular Antibiotic Susceptibility Result ([1]; K. aerogenes, clinical sample of r136-r150): Sensitive (Antimicrobial wells with pathogen load detected below the control wells (typically >2 cycle thresholds later) may be reported as Sensitive)
- Ct ([1]; K. aerogenes, clinical sample of r136-r150, Ct control avg 13.854): 30.511
- Molecular Antibiotic Susceptibility Result ([1]; K. pneumoniae, clinical sample of r121-r135): Sensitive (Antimicrobial wells with pathogen load detected below the control wells (typically >2 cycle thresholds later) may be reported as Sensitive)
- Ct ([1]; K. pneumoniae, clinical sample of r121-r135, Ct control avg […]): 29.719
- Molecular Antibiotic Susceptibility Result ([1]; M. morganii, clinical sample of r55-r69): Sensitive (Antimicrobial wells with pathogen load detected below the control wells (typically >2 cycle thresholds later) may be reported as Sensitive)
- Ct ([1]; M. morganii, clinical sample of r55-r69, Ct control avg 12.09): 22.916
- Molecular Antibiotic Susceptibility Result ([1]; M. morganii, clinical sample of r70-r84): Sensitive (Antimicrobial wells with pathogen load detected below the control wells (typically >2 cycle thresholds later) may be reported as Sensitive)
- Ct ([1]; M. morganii, clinical sample of r70-r84, Ct control avg 11.677): 22.281
- Molecular Antibiotic Susceptibility Result ([1]; P. mirabilis, clinical sample of r25-r39): Sensitive (Antimicrobial wells with pathogen load detected below the control wells (typically >2 cycle thresholds later) may be reported as Sensitive)
- Ct ([1]; P. mirabilis, clinical sample of r25-r39, Ct control avg 11.801): 23.476
- Molecular Antibiotic Susceptibility Result ([1]; P. mirabilis, clinical sample of r40-r54): Sensitive (Antimicrobial wells with pathogen load detected below the control wells (typically >2 cycle thresholds later) may be reported as Sensitive)
- Ct ([1]; P. mirabilis, clinical sample of r40-r54, Ct control avg 10.06): 25.628
- Molecular Antibiotic Susceptibility Result ([1]; S. aureus, clinical sample of r85-r92): Sensitive (Antimicrobial wells with pathogen load detected below the control wells (typically >2 cycle thresholds later) may be reported as Sensitive)
- Ct ([1]; S. aureus, clinical sample of r85-r92, Ct control avg 20.309): 28.965
- Ct at Sensitive Breakpoint (Escherichia coli; E. coli isolate 1, Ct at control (average) 21.238): 32.294
- Molecular Antimicrobial Susceptibility Result (Escherichia coli; E. coli isolate 1, at sensitive breakpoint): Sensitive (Antimicrobial wells with pathogen load detected below the control wells (typically >2 cycle thresholds later) may be reported as Sensitive)
- Ct at Sensitive Breakpoint (Escherichia coli; E. coli isolate 2, Ct at control (average) 21.270): 28.875
- Molecular Antimicrobial Susceptibility Result (Escherichia coli; E. coli isolate 2, at sensitive breakpoint): Sensitive (Antimicrobial wells with pathogen load detected below the control wells (typically >2 cycle thresholds later) may be reported as Sensitive)
- Ct at Sensitive Breakpoint (Escherichia coli; E. coli isolate 3, Ct at control (average) 22.0995): 30.605
- Molecular Antimicrobial Susceptibility Result (Escherichia coli; E. coli isolate 3, at sensitive breakpoint): Sensitive (Antimicrobial wells with pathogen load detected below the control wells (typically >2 cycle thresholds later) may be reported as Sensitive)
- Molecular Antimicrobial Susceptibility Result (Escherichia coli; E. coli isolate 4, at sensitive breakpoint): Resistant
- Ct at Sensitive Breakpoint (Escherichia coli; E. coli isolate 5, Ct at control (average) 21.0933): 29.12
- Molecular Antimicrobial Susceptibility Result (Escherichia coli; E. coli isolate 5, at sensitive breakpoint): Sensitive (Antimicrobial wells with pathogen load detected below the control wells (typically >2 cycle thresholds later) may be reported as Sensitive)
